In PMC2747021, “Synergistic Antibacterial and Anti-Inflammatory Activity of Temporin A and Modified Temporin B In Vivo” (PLoS ONE, 2009):
No end group written: not given here.

Key:
[1] = tested on: Salmonella enterica serovar Paratyphi; assay: Antibacterial activity, MIC100 broth dilution; type: cell-based; conditions: single peptide; MIC100, MH broth, about 10^6 CFU/ml, 37°C 20 h, absorbance 600 nm, triplicate
[2] = tested on: gram positive bacteria; assay: Antibacterial activity, summary for gram positive bacteria; type: cell-based; conditions: for antimicrobial activity against gram positive bacteria: in words, approximately to the same extent as temporin A, data not shown
Source text: The study included the following species: Staphylococcus aureus (isolate A170, A172, 007), Listeria monocytogenes, Salmonella enterica serovar Paratyphi, Salmonella enterica serovar Typhimurium, Escherichia coli. Isolates were obtained from patients hospitalized at the Medical School of the University of Naples. Specimen were confirmed by PCR assay of the genes sea (S. aureus), MonoA (L. monocytogenes), abe (S. enterica serovar Paratyphi), FliC (S. enterica serovar Typhimurium), sat (E. coli) [20]–[23]. Bacteria were grown at 37°C in TSB medium (S. aureus and L. monocytogenes) or LB medium (the remaining bacterial species) (Difco, Becton Dickinson, Sparks, MD), harvested while in exponential phase (OD600 nm; 0-6-0.8), centrifuged (8×10^3 g for 10 min), washed with saline (0.15 M NaCl) and resuspended in saline (10^6–10^7 CFU/ml).
Bacteria were grown at 37°C in TSB (S. aureus and L. monocytogenes) or in LB medium (the remaining bacterial species), harvested while in exponential phase (OD600 nm; 0-6-0.8), centrifuged (8×10^3 g for 10 min), washed with saline, resuspended in Muller Hinton (MH) broth at the concentration of approximately 10^6 CFU/ml and distributed, in triplicate, into 96 well plates (60 µl/well), mixed with twofold dilutions of the antimicrobial (TA: 5–100 µg, 40 µl/well; TB-YK: 4–100 µg, 40 µl/well; TA 5 µg+TB-YK 8 µg, 40 µl/well and incubated at 37°C for 20 h. The minimal concentration of the antimicrobial at which 100% inhibition of growth was observed (MIC100) was determined by measuring the absorbance at 600 nm (Biorad microplate reader model 680, Hercules, CA). The antibacterial activity was measured by spotting an aliquot (10 µl) of each well on TSA or LB agar and counting the CFU. A potential synergism between temporins was evaluated by adding combinations of two temporins in a serial twofold dilutions (TA: 5–100 µg;TB-YK: 4–100 µg; 40 µl/well) to wells containing 10^5 CFU/well in 60 µl. The presence of synergism was established as described.

[3] = tested on: Staphilococcus.aureus A170; conditions: single peptide; MIC100, MH broth, about 10^6 CFU/ml, 37°C 20 h, absorbance 600 nm, triplicate
[4] = tested on: Staphilococcus .aureus A172; conditions: 20 h
[5] = tested on: Staphilococcus aureus 007; conditions: 20 h
[6] = tested on: Listeria monocytogenes; conditions: 20 h
[7] = tested on: Escherichian coli; conditions: 20 h
[8] = tested on: gram negative bacteria; conditions: for antimicrobial activity against gram negative bacteria: in words, data not shown

Work on FLPLIGRVLSGIL-NH2 [TA, temporin A] yielded an MIC [1] of 400 µg/mL, an MIC ([2]; range over the gram positive bacteria tested) of 10 to 30 µg/mL and an MIC [3] of 10 µg/mL. For the same substance, the MIC [4] was 20 µg/mL, the MIC [5] was 10 µg/mL and the MIC [6] was 30 µg/mL. The MIC [7] was 125 µg/mL and the MIC ([8]; 20 h) was 125 to 400 µg/mL.

With H-LLPI VGNLLKSLL- NH2 [TB, temporin B] the “antimicrobial activity against gram positive bacteria” value [2] was “active” and the “antimicrobial activity against gram negative bacteria” value [8] was “totally inactive”.

In the case of H-YLLPI VGNLLKSLL- NH2 [TB-Y], the “antimicrobial activity against gram positive bacteria” value [2] is reported as “active” and the “antimicrobial activity against gram negative bacteria” value [8] is reported as “totally inactive”.
